Reference: ChEMBL document CHEMBL5584299, “Undobolins A-L, Ophiobolin-Type Sesterterpenoids from Aspergillus undulatus” (J Nat Prod, 2024)

Columns and labels:
RAW264.7 = assay: Antiinflammatory activity against mouse RAW264.7 cells assessed as reduction of LPS-induced NO production preincubated for 2 hrs followed by LPS-stimulation and measured after 12 hrs by Griess reagent assay; type: functional, cell-based
Splenocyte [1] = assay: Immunosuppressive activity in BALB/c mouse splenocytes assessed as inhibition of LPS-induced B cell proliferation incubated for 48 hrs by CCK-8 assay; type: functional, cell-based
Splenocyte [2] = assay: Immunosuppressive activity in BALB/c mouse splenocytes assessed as inhibition of ConA-induced T cell proliferation incubated for 48 hrs by CCK-8 assay; type: functional, cell-based
[3] = target: T1, 3-hydroxy-3-methylglutaryl-coenzyme A reductase (Homo sapiens, UniProt P04035); assay: Inhibition of human HMGR
T1 sequence (P04035 whole entry): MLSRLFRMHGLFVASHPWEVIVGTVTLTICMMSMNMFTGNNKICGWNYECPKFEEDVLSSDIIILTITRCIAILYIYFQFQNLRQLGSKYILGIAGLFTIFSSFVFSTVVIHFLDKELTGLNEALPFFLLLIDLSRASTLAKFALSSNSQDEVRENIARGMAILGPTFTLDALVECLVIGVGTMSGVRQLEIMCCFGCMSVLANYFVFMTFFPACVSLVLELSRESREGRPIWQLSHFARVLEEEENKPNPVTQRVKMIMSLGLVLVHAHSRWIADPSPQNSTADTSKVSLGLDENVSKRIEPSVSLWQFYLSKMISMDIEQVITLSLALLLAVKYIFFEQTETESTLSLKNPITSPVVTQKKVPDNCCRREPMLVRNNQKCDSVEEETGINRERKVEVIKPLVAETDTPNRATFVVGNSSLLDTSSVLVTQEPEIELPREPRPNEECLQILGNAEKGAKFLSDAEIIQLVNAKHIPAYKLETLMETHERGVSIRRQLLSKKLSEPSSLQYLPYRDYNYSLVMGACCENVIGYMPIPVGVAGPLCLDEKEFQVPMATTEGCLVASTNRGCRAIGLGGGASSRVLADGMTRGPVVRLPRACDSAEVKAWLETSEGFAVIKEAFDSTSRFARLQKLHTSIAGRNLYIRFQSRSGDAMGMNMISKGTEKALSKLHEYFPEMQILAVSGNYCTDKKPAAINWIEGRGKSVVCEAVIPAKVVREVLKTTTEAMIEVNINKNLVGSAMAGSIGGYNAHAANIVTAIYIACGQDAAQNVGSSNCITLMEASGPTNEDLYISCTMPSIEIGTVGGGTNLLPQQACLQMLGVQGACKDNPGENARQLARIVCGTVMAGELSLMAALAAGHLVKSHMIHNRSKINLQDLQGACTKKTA

Candida albicans = assay: Antifungal activity against Candida albicans ATCC10231 assessed as reduction in microbial growth incubated for 16 hrs by broth microdilution method; type: functional

IC50 (RAW264.7) [µM]	IC50 [3] [nM]	MIC (Candida albicans) [µg/mL]	Structure (SMILES)	IC50 (Splenocyte [1]) [µM]	IC50 (Splenocyte [2]) [µM]
> 40			CC(C)=C/C=C/[C@H](C)[C@H]1CC[C@]2(C)C[C@@]3(O)[C@H](C)C[C@@H](O)[C@@H]3/C(CO)=C\C[C@@H]12	> 40	> 40
> 40			C=C1[C@H]2[C@@H](O)C[C@@](C)(O)[C@H]2C[C@@]2(C)CC[C@H]([C@@H](C)CC/C=C(\C)C(=O)O)[C@@H]2C[C@@H]1O	> 40	> 40
> 40			CC(C)=CCC[C@H](C)[C@H]1CC[C@]2(C)C[C@@]3(O)[C@H](C)CC[C@@H]3/C(CO)=C\C[C@@H]12	> 40	> 40
> 40			CC(C)=C/C=C\[C@H](C)[C@H]1CC[C@]2(C)C[C@@]3(O)[C@H](C)CC[C@@H]3/C(CO)=C\C[C@@H]12	> 40	15.6
> 40			C=C1[C@H]2[C@H](O)C[C@@](C)(O)[C@H]2C[C@@]2(C)CC[C@H]([C@@H](C)CC/C=C(\C)C(=O)O)[C@@H]2C[C@@H]1O	> 40	10.8
> 40			C=C1[C@H]2CC[C@@](C)(O)[C@H]2C[C@@]2(C)CC[C@H]([C@@H](C)CC/C=C(\C)CO)[C@@H]2C[C@@H]1O	19.4	> 40
> 40			CC1=CC(=O)/C2=C(\CO)CC[C@H]3[C@@H]([C@@H](C)CC/C=C(\C)C(=O)O)CC[C@]3(C)C[C@H]12	> 40	> 40
8.31			CC(C)=C/C=C\[C@H](C)[C@H]1CC[C@]2(C)C[C@@H]3C(C)=CC(=O)[C@H]3[C@H](CO)CC[C@@H]12	> 40	> 40
			C[C@@H]1C[C@H]2[C@@H]3CCC4=CC(=O)C=C[C@]4(C)[C@@]3(F)[C@@H](O)C[C@]2(C)[C@@]1(O)C(=O)CO [DEXAMETHASONE]	0.47	0.04
> 40			C/C1=C/C[C@H]2[C@@H]([C@@H](C)CC/C=C(\C)CO)CC[C@]2(C)C[C@@]2(O)[C@H](C)CC[C@H]12	> 40	2.29
> 40			CC1=CC(=O)[C@H]2/C(CO)=C\C[C@H]3[C@@H]([C@@H](C)/C=C\[C@@H]4OC4(C)C)CC[C@]3(C)C[C@H]12	> 40	> 40
	2500	4	CC(C)=C[C@H]1C[C@H](C)[C@]2(CC[C@]3(C)C[C@@H]4C(=O)C=C5C4=C(CC[C@H]32)C(=O)N5CCO)O1		
> 40			CC(C)=C/C=C\[C@H](C)[C@H]1CC[C@]2(C)C[C@@]3(O)[C@H](C)C[C@@H](O)[C@@H]3/C(CO)=C\C[C@@H]12	> 40	35.8
> 40			CC(C)=C/C=C\[C@H](C)[C@H]1CC[C@]2(C)C[C@@H]3C(=O)C=C4C3=C(CC[C@@H]12)C(=O)N4CCO	25.4	> 40
